Target: α4β7 integrin (Homo sapiens (Human), UniProt P13612+P26010)
Assay: α4β7 Integrin Cell Capture Assay
Format: cell-based
[1] = Table 1, capture of α4β7 expressing RPM18866 cells on MadCAM-1 extracellular domain-coated plate
[2] = Table 2, capture of α4β7 expressing RPM18866 cells on MadCAM-1 extracellular domain-coated plate
[3] = RPMI8866 cells captured on MadCAM-1 extracellular domain-coated plate

α4β7 integrin, sequence (P13612 34-1032): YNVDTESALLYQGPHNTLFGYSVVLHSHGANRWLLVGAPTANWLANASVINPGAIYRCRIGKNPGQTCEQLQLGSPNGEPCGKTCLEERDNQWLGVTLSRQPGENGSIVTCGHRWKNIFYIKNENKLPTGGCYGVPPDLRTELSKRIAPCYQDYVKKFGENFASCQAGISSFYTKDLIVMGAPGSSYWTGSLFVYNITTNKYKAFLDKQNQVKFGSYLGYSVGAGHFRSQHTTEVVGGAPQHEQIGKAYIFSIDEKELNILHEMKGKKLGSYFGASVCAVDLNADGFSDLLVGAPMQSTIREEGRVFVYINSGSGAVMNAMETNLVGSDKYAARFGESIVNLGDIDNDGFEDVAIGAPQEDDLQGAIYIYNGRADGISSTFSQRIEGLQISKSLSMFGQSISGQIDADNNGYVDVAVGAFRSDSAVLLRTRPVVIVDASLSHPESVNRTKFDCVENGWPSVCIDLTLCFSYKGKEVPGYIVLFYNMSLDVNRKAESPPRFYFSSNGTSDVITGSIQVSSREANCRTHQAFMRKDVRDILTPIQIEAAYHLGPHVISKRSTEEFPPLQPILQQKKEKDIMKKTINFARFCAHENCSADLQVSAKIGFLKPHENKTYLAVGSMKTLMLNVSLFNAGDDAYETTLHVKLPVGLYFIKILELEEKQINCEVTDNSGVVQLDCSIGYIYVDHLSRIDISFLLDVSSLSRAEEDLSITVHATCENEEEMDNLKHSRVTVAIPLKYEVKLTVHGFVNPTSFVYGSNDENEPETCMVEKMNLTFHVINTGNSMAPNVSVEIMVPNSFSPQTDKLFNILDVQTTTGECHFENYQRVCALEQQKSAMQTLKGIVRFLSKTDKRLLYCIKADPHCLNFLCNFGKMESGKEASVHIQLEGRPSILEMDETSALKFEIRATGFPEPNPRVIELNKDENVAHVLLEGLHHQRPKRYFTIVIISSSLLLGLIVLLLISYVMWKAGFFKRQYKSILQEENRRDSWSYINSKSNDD
α4β7 integrin, sequence (P26010 20-798): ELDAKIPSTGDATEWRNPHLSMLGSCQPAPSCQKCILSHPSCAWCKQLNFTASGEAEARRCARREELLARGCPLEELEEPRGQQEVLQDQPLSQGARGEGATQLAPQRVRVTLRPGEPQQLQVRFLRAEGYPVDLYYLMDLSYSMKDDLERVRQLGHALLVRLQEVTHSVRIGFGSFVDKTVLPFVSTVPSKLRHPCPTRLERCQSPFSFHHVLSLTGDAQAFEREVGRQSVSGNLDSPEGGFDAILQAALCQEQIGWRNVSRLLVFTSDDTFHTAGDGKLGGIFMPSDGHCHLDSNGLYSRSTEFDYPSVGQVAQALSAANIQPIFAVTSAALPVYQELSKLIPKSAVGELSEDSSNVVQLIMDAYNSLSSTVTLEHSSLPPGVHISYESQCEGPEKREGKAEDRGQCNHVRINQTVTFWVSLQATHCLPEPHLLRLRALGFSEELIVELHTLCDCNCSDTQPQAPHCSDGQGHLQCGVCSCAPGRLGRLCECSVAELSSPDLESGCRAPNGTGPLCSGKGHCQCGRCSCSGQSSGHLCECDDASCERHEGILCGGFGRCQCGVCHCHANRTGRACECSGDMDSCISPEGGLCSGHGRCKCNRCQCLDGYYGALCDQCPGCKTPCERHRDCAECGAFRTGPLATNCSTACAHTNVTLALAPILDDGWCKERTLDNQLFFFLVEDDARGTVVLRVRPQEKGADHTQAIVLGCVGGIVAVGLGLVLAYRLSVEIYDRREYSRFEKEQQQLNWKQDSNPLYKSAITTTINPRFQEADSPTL

EC50 [1] [nM] | EC50 [2] [nM] | SMILES | also measured
30.5 | – | Cc1ccccc1-c1ccc(C[C@H](NC(=O)c2c(F)cc(NS(=O)(=O)c3ccc(-c4ccnc(F)c4)cc3)cc2F)C(=O)O)c2cccnc12 [Example 63, (S)-2-(2,6-difluoro-4-((4-(2-fluoropyridin-4-yl)phenyl)sulfonamido)benzamido)-3-(8-(o-tolyl)quinolin-5-yl)propanoic acid] | –
– | 0.6 | Cc1c(-c2ccc(C[C@H](NC(=O)c3c(F)cc(N[C@H](C)C(F)(F)F)cc3F)C(=O)O)c3cccnc23)c(=O)n(C)c(=O)n1C [Example 340] | –
– | 23.7 | N#Cc1ccc(-c2ccc(C[C@H](NC(=O)c3c(F)cc(NCC(F)(F)F)cc3F)C(=O)O)c3cccnc23)c(Cl)c1 [Example 332] | –
– | 9.4 | O=C(N[C@@H](Cc1ccc(-c2ncc3ccccc3c2Br)c2ncccc12)C(=O)O)c1c(Cl)cccc1Cl [Example 303] | –
– | – | Cc1cc(N2CCOC[C@@H]2C(F)(F)F)cc(F)c1C(=O)N[C@@H](Cc1ccc(-c2cnc(C)n(C)c2=O)c2ncccc12)C(=O)O [Example 467] | EC50 [3]: 0.238 nM
– | 5.7 | CC[C@@H](Nc1cc(F)c(C(=O)N[C@@H](Cc2ccc(-c3c(C)c(N(C)C)cn(C)c3=O)c3ncccc23)C(=O)O)c(F)c1)C(F)(F)F [Example 287] | –
27.4 | – | Cc1noc(C)c1-c1ccc(C[C@H](NC(=O)c2c(F)cc(NS(=O)(=O)c3ccc(-c4ccnc(F)c4)cc3)cc2F)C(=O)O)c2cccnc12 [Example 55, (S)-2-(2,6-difluoro-4-((4-(2-fluoropyridin-4-yl)phenyl)sulfonamido)benzamido)-3-(8-(3,5-dimethylisoxazol-4-yl)quinolin-5-yl)propanoic acid] | –
9.3 | – | CC[C@@H](Nc1cc(F)c(C(=O)N[C@@H](Cc2ccc(-c3c(C)n(C)c4ccc(F)cc4c3=O)c3ncccc23)C(=O)O)c(F)c1)C(F)(F)F [Example 127, (S)-2-(2,6-difluoro-4-(((R)-1,1,1-trifluorobutan-2-yl)amino)benzamido)-3-(6-fluoro-1,2-dimethyl-4-oxo-1,4-dihydro-[3,8′-biquinolin]-5′-yl)propanoic acid] | –
– | 1.5 | CCOCc1cc(OC)c(-c2ccc(C[C@H](NC(=O)c3c(F)cc(N[C@H](CC)C(F)(F)F)cc3F)C(=O)O)c3cccnc23)c(OC)c1 [Example 201] | –
50 | – | O=C(N[C@@H](Cc1ccc(-c2c(Cl)cc(F)cc2Cl)c2ncccc12)C(=O)O)c1c(F)cccc1F [Example 19, (S)-3-(8-(2,6-dichloro-4-fluorophenyl)quinolin-5-yl)-2-(2,6-difluorobenzamido)propanoic acid] | –
– | – | CCc1cc(N2CCOC[C@@H]2C(F)(F)F)cc(F)c1C(=O)N[C@@H](Cc1ccc(-c2c(C(F)(F)F)cc(C)n(C)c2=O)c2ncccc12)C(=O)O [Example 471] | EC50 [3]: 0.179 nM
– | – | Cc1cc(N2CCOC[C@@H]2C(F)(F)F)cc(F)c1C(=O)N[C@@H](Cc1ccc(-n2c(=O)c3ccncc3n(C)c2=O)c2ncccc12)C(=O)O [Example 356, (S)-2-(2-fluoro-6-methyl-4-((R)-3-(trifluoromethyl)morpholino)benzamido)-3-(8-(1-methyl-2,4-dioxo-1,4-dihydropyrido[3,4-d]pyrimidin-3(2H)-yl)quinolin-5-yl)propanoic acid] | EC50 [3]: 0.05 nM
– | – | Cc1cc(N2CCOC[C@@H]2C(F)(F)F)cc(F)c1C(=O)N[C@@H](Cc1ccc(-n2c(=O)c3cc(N(C)C)ncc3n(C)c2=O)c2ncccc12)C(=O)O [Example 416] | EC50 [3]: 0.126 nM
78.4 | – | N#Cc1ccc(-c2ccc(C[C@H](NC(=O)c3c(F)cc(N4CCC[C@@H]4C(F)(F)F)cc3F)C(=O)O)c3cccnc23)c(Cl)c1 [Example 76, (S)-3-(8-(2-chloro-4-cyanophenyl)quinolin-5-yl)-2-(2,6-difluoro-4-((R)-2-(trifluoromethyl)pyrrolidin-1-yl)benzamido)propanoic acid] | –
– | 2.8 | C[C@@H](Nc1cc(F)c(C(=O)N[C@@H](Cc2ccc(-c3nc(N)ccc3C(F)(F)F)c3ncccc23)C(=O)O)c(F)c1)C(F)(F)F [Example 238] | –
91.5 | – | O=C(N[C@@H](Cc1ccc(-c2ccsc2)c2ncccc12)C(=O)O)c1c(F)cc(NS(=O)(=O)c2ccc(-c3ccnc(F)c3)cc2)cc1F [Example 52, (S)-2-(2,6-difluoro-4-((4-(2-fluoropyridin-4-yl)phenyl)sulfonamido)benzamido)-3-(8-(thiophen-3-yl)quinolin-5-yl)propanoic acid] | –
80.4 | – | N#Cc1ccc(-c2ccc(C[C@H](NC(=O)c3c(F)cc(N4CCCC[C@@H]4C(F)(F)F)cc3F)C(=O)O)c3cccnc23)c(Cl)c1 [Example 75, (S)-3-(8-(2-chloro-4-cyanophenyl)quinolin-5-yl)-2-(2,6-difluoro-4-((R)-2-(trifluoromethyl)piperidin-1-yl)benzamido)propanoic acid] | –
– | 3.2 | Cc1cc(C(F)(F)F)c(-c2ccc(C[C@H](NC(=O)c3c(F)cc(N4CCOC[C@H]4CC(F)(F)F)cc3F)C(=O)O)c3cccnc23)c(=O)n1C [Example 254] | –
– | – | Cc1cnc(-c2ccc(C[C@H](NC(=O)c3c(C)cc(N4CCOC[C@@H]4C(F)(F)F)cc3F)C(=O)O)c3cccnc23)nc1C [Example 482] | EC50 [3]: 1.5 nM

EC50 [1] [nM] | EC50 [2] [nM] | SMILES | also measured
1.8 | – | O=C(N[C@@H](Cc1ccc(-c2cccc3c2OCCC3)c2ncccc12)C(=O)O)c1c(F)cc(NS(=O)(=O)c2ccc(-c3ccnc(F)c3)cc2)cc1F [Example 62, (S)-3-(8-(chroman-8-yl)quinolin-5-yl)-2-(2,6-difluoro-4-((4-(2-fluoropyridin-4-yl)phenyl)sulfonamido)benzamido)propanoic acid] | –
0.5 | – | CC[C@@H](Nc1cc(F)c(C(=O)N[C@@H](Cc2ccc(-c3c(C(F)(F)F)cc(C)n(C)c3=O)c3ncc(F)cc23)C(=O)O)c(F)c1)C(F)(F)F [Example 140, (S)-2-(2,6-difluoro-4-(((R)-1,1,1-trifluorobutan-2-yl)amino)benzamido)-3-(8-(1,6-dimethyl-2-oxo-4-(trifluoromethyl)-1,2-dihydropyridin-3-yl)-3-fluoroquinolin-5-yl)propanoic acid] | –
48.5 | – | N#Cc1ccc(-c2ccc(C[C@H](NC(=O)c3c(Cl)cc(F)cc3Cl)C(=O)O)c3cccnc23)c(Cl)c1 [Example 22, (S)-3-(8-(2-chloro-4-cyanophenyl)quinolin-5-yl)-2-(2,6-dichloro-4-fluorobenzamido)propanoic acid] | –
– | 13.7 | O=C(N[C@@H](Cc1ccc(NC(=O)c2c(Cl)cncc2Cl)c2ncccc12)C(=O)O)c1c(F)cccc1F [Example 316] | –
– | 4.4 | Cc1ccc(C(F)(F)F)c(-c2ccc(C[C@H](NC(=O)c3c(F)cc(N4CCOC[C@@H]4C(F)(F)F)cc3F)C(=O)O)c3cccnc23)n1 [Example 270] | –
– | 10.2 | CC[C@@H](Nc1cc(F)c(C(=O)N[C@@H](Cc2ccc(-c3ncccc3C(C)C)c3ncccc23)C(=O)O)c(F)c1)C(F)(F)F [Example 305] | –
– | 31 | CC1(O)CCN(c2cc(F)c(C(=O)N[C@@H](Cc3ccc(-c4ccc(C#N)cc4Cl)c4ncccc34)C(=O)O)c(F)c2)CC1 [Example 216] | –
56.7 | – | CC(O)Cc1cc(F)c(C(=O)N[C@@H](Cc2ccc(-c3ccc(C#N)cc3Cl)c3ncccc23)C(=O)O)c(F)c1 (stereo partly drawn) [Example 24, (2S)-3-(8-(2-chloro-4-cyanophenyl)quinolin-5-yl)-2-(2,6-difluoro-4-(2-hydroxypropyl)benzamido)propanoic acid] | –
– | 2.2 | Cc1ccnc(-c2ccc(C[C@H](NC(=O)c3c(F)cc(N4CCOC[C@@H]4C(F)(F)F)cc3F)C(=O)O)c3cccnc23)c1C(F)(F)F [Example 223] | –
6.7 | – | N#Cc1cc(Cl)c(-c2ccc(C[C@H](NC(=O)c3c(Cl)cccc3Cl)C(=O)O)c3cccnc23)c(Cl)c1 [Example 4, (S)-3-(8-(2,6-dichloro-4-cyanophenyl)quinolin-5-yl)-2-(2,6-dichlorobenzamido)propanoic acid] | –
– | 45.9 | N#Cc1ccc(-c2ccc(C[C@H](NC(=O)c3c(F)cc(NC4(C(F)F)CC4)cc3F)C(=O)O)c3cccnc23)c(Cl)c1 [Example 284] | –
– | – | CCn1c(=O)n(-c2ccc(C[C@H](NC(=O)c3c(C)cc(N4CCOC[C@@H]4C(F)(F)F)cc3F)C(=O)O)c3cccnc23)c(=O)c2ccncc21 [Example 417] | EC50 [3]: 0.117 nM
– | 13.3 | CC[C@@H](Nc1cc(F)c(C(=O)N[C@@H](Cc2ccc(-c3ncc(C)cc3N(C)C)c3ncccc23)C(=O)O)c(F)c1)C(F)(F)F [Example 313] | –
0.7 | – | Cc1cc(C(F)(F)F)c(-c2ccc(C[C@H](NC(=O)c3c(F)cc(N4CCCC[C@@H]4C(F)(F)F)cc3F)C(=O)O)c3cccnc23)c(=O)n1C [Example 129, (S)-2-(2,6-difluoro-4-((R)-2-(trifluoromethyl)piperidin-1-yl)benzamido)-3-(8-(1,6-dimethyl-2-oxo-4-(trifluoromethyl)-1,2-dihydropyridin-3-yl)quinolin-5-yl)propanoic acid] | –
12.8 | – | C[C@@H](NC(=O)c1cc(F)c(C(=O)N[C@@H](Cc2ccc(-c3ccc(C#N)cc3Cl)c3ncccc23)C(=O)O)c(F)c1)c1ccccc1 [Example 27, (S)-3-(8-(2-chloro-4-cyanophenyl)quinolin-5-yl)-2-(2,6-difluoro-4-(((R)-1-phenylethyl)carbamoyl)benzamido)propanoic acid] | –
– | 15.3 | CC[C@@H](Nc1cc(F)c(C(=O)N[C@@H](Cc2ccc(-c3nc(C)nc(C)c3C)c3ncccc23)C(=O)O)c(F)c1)C(F)(F)F [Example 320] | –
37.4 | – | O=C(N[C@@H](Cc1ccc(-c2ccc(C3CC3)cc2Cl)c2ncccc12)C(=O)O)c1c(F)cc(NS(=O)(=O)c2ccc(-c3ccnc(F)c3)cc2)cc1F [Example 54, (S)-3-(8-(2-chloro-4-cyclopropylphenyl)quinolin-5-yl)-2-(2,6-difluoro-4-((4-(2-fluoropyridin-4-yl)phenyl)sulfonamido)benzamido)propanoic acid] | –
– | 19.3 | CC[C@@H](Nc1cc(F)c(C(=O)N[C@@H](Cc2ccc(-c3ncc(C)cc3Cl)c3ncccc23)C(=O)O)c(F)c1)C(F)(F)F [Example 327] | –
